Assay results from patent publication US9908912B2, “Triclosan derivatives and uses thereof” (priority 2012, dated 2018).
Converted amounts (≈) assume the structure as drawn.

Experiments:
[1] = system: Crono. sakazakii ATCC 29544; experiment: MIC in Nutrient Broth No. 2; format: cell-based, Cronobacter sakazakii; conditions: Cronobacter sakazakii, ATCC29544; Nutrient Broth No. 2, 24 h, 37° C.; inducer not specified; read-out: MIC
Experimental: (§1) Bacteria species as indicated in Table 1 were incubated for approximately 24 hours at 37° C.
(§2) The tests were repeated with the addition of inducers. Methyl glycoside was the main inducer used, but other suitable inducers include isopropyl-β-D-thiogalactopyranoside, p-nitrophenyl-α-L-arabinopyranoside and p-nitrophenyl-β-D-xylopyranoside. Concentration of inducer in all cases was 100 μg/ml.

[2] = system: Ent. cloacae ATCC 13047; experiment: MIC in Nutrient Broth No. 2; format: cell-based, Enterobacter cloacae; conditions: Enterobacter cloacae, ATCC13047; Nutrient Broth No. 2, 24 h, 37° C.; inducer not specified; read-out: MIC
Experimental: as §1, §2

[3] = system: E. hermanii ATCC 33650; experiment: MIC in Nutrient Broth No. 2; format: cell-based, Escherichia hermanii; conditions: Atlantibacter hermannii, ATCC33650; Nutrient Broth No. 2, 24 h, 37° C.; inducer not specified; read-out: MIC
Experimental: as §1, §2

[4] = system: Kleb. aerogenes NCTC 88167; experiment: MIC in Nutrient Broth No. 2; format: cell-based, Klebsiella aerogenes; conditions: Klebsiella aerogenes, NCTC88167; Nutrient Broth No. 2, 24 h, 37° C.; inducer not specified; read-out: MIC
Experimental: as §1, §2

[5] = system: Kleb. pneumoniae ATCC 10031; experiment: MIC in Nutrient Broth No. 2; format: cell-based, Klebsiella pneumoniae; conditions: Klebsiella pneumoniae, ATCC10031; Nutrient Broth No. 2, 24 h, 37° C.; inducer not specified; read-out: MIC
Experimental: as §1, §2

[6] = system: Aeromonas hydrophila OCC 778; experiment: MIC in Nutrient Broth No. 2; format: cell-based; conditions: Aeromonas hydrophila, OCC778; Nutrient Broth No. 2, 24 h, 37° C.; inducer not specified; read-out: MIC
Experimental: as §1, §2

[7] = system: Bacillus cereus ATCC 14579; experiment: MIC in Nutrient Broth No. 2; format: cell-based; conditions: Bacillus cereus, ATCC14579; Nutrient Broth No. 2, 24 h, 37° C.; inducer not specified; read-out: MIC
Experimental: as §1, §2

[8] = system: Bacillus subtilis NCTC 10073; experiment: MIC in Nutrient Broth No. 2; format: cell-based; conditions: Bacillus subtilis, NCTC10073; Nutrient Broth No. 2, 24 h, 37° C.; inducer not specified; read-out: MIC
Experimental: as §1, §2

[9] = system: Citrobacter freundii OCC 851; experiment: MIC in Nutrient Broth No. 2; format: cell-based; conditions: Citrobacter freundii, OCC851; Nutrient Broth No. 2, 24 h, 37° C.; inducer not specified; read-out: MIC
Experimental: as §1, §2

[10] = system: Enterobacter aerogenes ATCC 13048; experiment: MIC in Nutrient Broth No. 2; format: cell-based; conditions: Klebsiella aerogenes, ATCC13048; Nutrient Broth No. 2, 24 h, 37° C.; inducer not specified; read-out: MIC
Experimental: as §1, §2

[11] = system: Enterococcus faecalis ATCC 29212; experiment: MIC in Nutrient Broth No. 2; format: cell-based; conditions: Enterococcus faecalis, ATCC29212, 24 h
Experimental: as §1, §2

[12] = system: Enterococcus faecium ATCC 19434; experiment: MIC in Nutrient Broth No. 2; format: cell-based; conditions: Enterococcus faecium, ATCC19434; Nutrient Broth No. 2, 24 h, 37° C.; inducer not specified; read-out: MIC
Experimental: as §1, §2

[13] = system: Escherichia coli; experiment: MIC in Nutrient Broth No. 2; format: cell-based; conditions: Escherichia coli; 8 strains; Nutrient Broth No. 2, 24 h, 37° C.; inducer not specified; read-out: MIC
Experimental: as §1, §2

[14] = system: Hafnia alvei ATCC 13337; experiment: MIC in Nutrient Broth No. 2; format: cell-based; conditions: Hafnia alvei, ATCC13337; Nutrient Broth No. 2, 24 h, 37° C.; inducer not specified; read-out: MIC
Experimental: as §1, §2

[15] = system: Proteus mirabilis ATCC 12453; experiment: MIC in Nutrient Broth No. 2; format: cell-based; conditions: Proteus mirabilis, ATCC12453; Nutrient Broth No. 2, 24 h, 37° C.; inducer not specified; read-out: MIC
Experimental: as §1, §2

[16] = system: Proteus vulgaris OCC 195; experiment: MIC in Nutrient Broth No. 2; format: cell-based; conditions: Proteus vulgaris, OCC195; Nutrient Broth No. 2, 24 h, 37° C.; inducer not specified; read-out: MIC
Experimental: as §1, §2

[17] = system: Ps. Aeruginosa ATCC 27853; experiment: MIC in Nutrient Broth No. 2; format: cell-based; conditions: Pseudomonas aeruginosa, ATCC27853; Nutrient Broth No. 2, 24 h, 37° C.; inducer not specified; read-out: MIC
Experimental: as §1, §2

[18] = system: Salmonella; experiment: MIC in Nutrient Broth No. 2; format: cell-based; conditions: Salmonella; 11 strains; Nutrient Broth No. 2, 24 h, 37° C.; inducer not specified; read-out: MIC
Experimental: as §1, §2

[19] = system: Serratia marcescens OCC 217; experiment: MIC in Nutrient Broth No. 2; format: cell-based; conditions: Serratia marcescens, OCC217; Nutrient Broth No. 2, 24 h, 37° C.; inducer not specified; read-out: MIC
Experimental: as §1, §2

[20] = system: Staph. aureus; experiment: MIC in Nutrient Broth No. 2; format: cell-based, Staphylococcus aureus; conditions: Staphylococcus aureus; 8 strains; Nutrient Broth No. 2, 24 h, 37° C.; inducer not specified; read-out: MIC
Experimental: as §1, §2

[21] = system: Staph. epidermidis; experiment: MIC in Nutrient Broth No. 2; format: cell-based, Staphylococcus epidermidis; conditions: Staphylococcus epidermidis; 3 strains; Nutrient Broth No. 2, 24 h, 37° C.; inducer not specified; read-out: MIC
Experimental: as §1, §2

[22] = system: Staph. haemolyticus OCC 2223; experiment: MIC in Nutrient Broth No. 2; format: cell-based, Staphylococcus haemolyticus; conditions: Staphylococcus haemolyticus, OCC2223; Nutrient Broth No. 2, 24 h, 37° C.; inducer not specified; read-out: MIC
Experimental: as §1, §2

[23] = system: Staph. saprophyticus ATCC 15305; experiment: MIC in Nutrient Broth No. 2; format: cell-based, Staphylococcus saprophyticus; conditions: Staphylococcus saprophyticus, ATCC15305; Nutrient Broth No. 2, 24 h, 37° C.; inducer not specified; read-out: MIC
Experimental: as §1, §2

[24] = system: Strep. agalactiae OCC 182; experiment: MIC in Nutrient Broth No. 2; format: cell-based, Streptococcus agalactiae; conditions: Streptococcus agalactiae, OCC182; Nutrient Broth No. 2, 24 h, 37° C.; inducer not specified; read-out: MIC
Experimental: as §1, §2

[25] = system: Strep. pneumoniae ATCC 6305; experiment: MIC in Nutrient Broth No. 2; format: cell-based, Streptococcus pneumoniae; conditions: Streptococcus pneumoniae, ATCC6305; Nutrient Broth No. 2, 24 h, 37° C.; inducer not specified; read-out: MIC
Experimental: as §1, §2

[26] = system: Strep. pyogenes ATCC 19615; experiment: MIC in Nutrient Broth No. 2; format: cell-based, Streptococcus pyogenes; conditions: Streptococcus pyogenes, ATCC19615; Nutrient Broth No. 2, 24 h, 37° C.; inducer not specified; read-out: MIC
Experimental: as §1, §2

[27] = system: Strep. viridans OCC 234; experiment: MIC in Nutrient Broth No. 2; format: cell-based, Streptococcus viridans; conditions: Streptococcus viridans, OCC234; Nutrient Broth No. 2, 24 h, 37° C.; inducer not specified; read-out: MIC
Experimental: as §1, §2

[28] = system: Bacteria species as indicated in Table 1; experiment: MIC in Nutrient Broth No. 2 (over organisms of Table 1); format: cell-based; conditions: Table 1 organisms
Experimental: as §1, §2

SMILES: Oc1cc(Cl)ccc1Oc1ccc(Cl)cc1Cl [Triclosan, 5-chloro-2-(2,4-dichlorophenoxy)phenol]
- MIC [1]: 0.5 µg/mL (≈ 1.73 µM)
- MIC [2]: 0.5 µg/mL (≈ 1.73 µM)
- MIC [3]: 0.5 µg/mL (≈ 1.73 µM)
- MIC [4]: 0.5 µg/mL (≈ 1.73 µM)
- MIC [5]: 0.1 µg/mL (≈ 0.345 µM)
- MIC [6]: 8 µg/mL (≈ 27.6 µM)
- MIC [7]: 2 µg/mL (≈ 6.91 µM)
- MIC [8]: 1 µg/mL (≈ 3.45 µM)
- MIC [9]: 0.5 µg/mL (≈ 1.73 µM)
- MIC [10]: 0.5 µg/mL (≈ 1.73 µM)
- MIC [11]: 8 µg/mL (≈ 27.6 µM)
- MIC [12]: 4 µg/mL (≈ 13.8 µM)
- MIC [13]: 0.1 to 0.5 µg/mL (≈ 0.345 to 1.73 µM)
- MIC [14]: 0.1 µg/mL (≈ 0.345 µM)
- MIC [15]: 0.5 µg/mL (≈ 1.73 µM)
- MIC [16]: 0.5 µg/mL (≈ 1.73 µM)
- MIC [17]: 32 µg/mL (≈ 111 µM)
- MIC [18]: 0.5 to 1 µg/mL (≈ 1.73 to 3.45 µM)
- MIC [19]: 64 µg/mL (≈ 221 µM)
- MIC [20]: 0.01 µg/mL (≈ 0.0345 µM)
- MIC [21]: 0.01 µg/mL (≈ 0.0345 µM)
- MIC [22]: 0.01 µg/mL (≈ 0.0345 µM)
- MIC [23]: 0.01 µg/mL (≈ 0.0345 µM)
- MIC [24]: 4 µg/mL (≈ 13.8 µM)
- MIC [25]: 1 µg/mL (≈ 3.45 µM)
- MIC [26]: 1 µg/mL (≈ 3.45 µM)
- MIC [27]: 4 µg/mL (≈ 13.8 µM)
- susceptibility of the organisms that were tested [28]: inhibited
